In ChEMBL document CHEMBL5154799, “Discovery of a Novel Stilbene Derivative as a Microtubule Targeting Agent Capable of Inducing Cell Ferroptosis” (J Med Chem, 2022):

Experiments:
Format in all cases: functional, cell-based
A2780 = assay: Antiproliferative activity against human A2780 cells assessed as cell viability incubated for 48 hrs by MTT assay; settings: A2780, 48 h
HCT-8 = assay: Antiproliferative activity against human HCT-8 cells assessed as cell viability incubated for 48 hrs by MTT assay; settings: HCT-8, 48 h
HeLa = assay: Antiproliferative activity against human HeLa cells assessed as cell viability incubated for 48 hrs by MTT assay
A549 = assay: Antiproliferative activity against human A549 cells assessed as cell viability incubated for 48 hrs by MTT assay; settings: A549, 48 h
MCF7 = assay: Antiproliferative activity against human MCF7 cells assessed as cell viability incubated for 48 hrs by MTT assay; settings: MCF7, 48 h

| Compound | IC50 (A2780) | IC50 (HCT-8) | IC50 (HeLa) | IC50 (A549) | IC50 (MCF7) |
| --- | --- | --- | --- | --- | --- |
| C=C(c1cc(OC)c(OC)c(OC)c1)c1ccc(OC)cc1NC(=O)CN | 30 nM | 60 nM | 70 nM | 40 nM | 190 nM |
| C=C(c1ccc2c(c1)C=CC(C)(C)O2)c1ccc(OC)cc1NC(=O)CNC | 320 nM | 590 nM | 410 nM | 200 nM | 720 nM |
| C=C(c1cc(OC)c(OC)c(OC)c1)c1ccc(OC)cc1NC(=O)CNCC | 450 nM | 590 nM | 430 nM | 260 nM | 860 nM |
| C=C(c1cc(OC)c(OC)c(OC)c1)c1ccc(OC)cc1NC(=O)CN(C)C | 240 nM | 340 nM | 370 nM | 130 nM | 390 nM |
| CCNCC(=O)Nc1cc(OC)ccc1C(=O)c1ccc(OC)c2c1C=CC(C)(C)O2 | 4090 nM | 7890 nM | 4270 nM | 2310 nM | 7230 nM |
| COc1ccc(C(=O)c2ccc3c(c2)C=CC(C)(C)O3)c(NC(=O)CN)c1 | 590 nM | 490 nM | 580 nM | 310 nM | 680 nM |
| CCNCC(=O)Nc1cc(OC)ccc1C(=O)c1ccc2c(c1)C=CC(C)(C)O2 | 2070 nM | 3990 nM | 3110 nM | 1300 nM | 6310 nM |
| COc1ccc(C(=O)c2ccc(OC)c3c2C=CC(C)(C)O3)c(NC(=O)CN)c1 | 890 nM | 1050 nM | 100 nM | 420 nM | 1250 nM |
| CCNCC(=O)Nc1cc(OC)ccc1C(=O)c1cc(OC)c(OC)c(OC)c1 | 950 nM | 1560 nM | 2100 nM | 750 nM | 1050 nM |
| C=C(c1ccc2c(c1)C=CC(C)(C)O2)c1ccc(OC)cc1NC(=O)CN | 140 nM | 220 nM | 160 nM | 60 nM | 420 nM |
| C=C(c1ccc(OC)cc1NC(=O)CN(C)C)c1ccc(OC)c2c1C=CC(C)(C)O2 | 670 nM | 1920 nM | 790 nM | 550 nM | 2580 nM |
| C=C(c1cc(OC)c(OC)c(OC)c1)c1ccc(OC)cc1NC(=O)CO | 30 nM | 40 nM | 30 nM | 20 nM | 110 nM |
| CNCC(=O)Nc1cc(OC)ccc1C(=O)c1ccc(OC)c2c1OC(C)(C)C=C2 | 620 nM | 740 nM | 870 nM | 620 nM | 820 nM |
| COc1ccc(C(=O)c2ccc3c(c2)C=CC(C)(C)O3)c(NC(=O)CO)c1 | 130 nM | 250 nM | 240 nM | 90 nM | 200 nM |
| COc1ccc(C(=O)c2ccc(OC)c3c2OC(C)(C)C=C3)c(NC(=O)CBr)c1 | 980 nM | 3250 nM | 2140 nM | 1210 nM | 2360 nM |
| C=C(c1ccc(OC)cc1NC(=O)CNC)c1ccc(OC)c2c1C=CC(C)(C)O2 | 720 nM | 980 nM | 500 nM | 320 nM | 1010 nM |
| C=C(c1ccc2c(c1)C=CC(C)(C)O2)c1ccc(OC)cc1NC(=O)CO | 110 nM | 220 nM | 100 nM | 40 nM | 390 nM |
| COc1ccc(C(=O)c2ccc(OC)c3c2C=CC(C)(C)O3)c(NC(=O)CO)c1 | 420 nM | 630 nM | 310 nM | 100 nM | 940 nM |
| COc1ccc(C(=O)c2ccc3c(c2)C=CC(C)(C)O3)c(NC(=O)CN(C)C)c1 | 1020 nM | 2420 nM | 1260 nM | 1160 nM | 3560 nM |
| COc1ccc(C(=O)c2ccc3c(c2)C=CC(C)(C)O3)c(NC(=O)CBr)c1 | 1870 nM | 3260 nM | 3050 nM | 1980 nM | 2880 nM |
